Data set [1] has as its system E. coli 1699. The data set is described as follows: MIC, broth microdilution. Conditions: Table 3B. Type of data set: cell-based, Escherichia coli. Here is the method:
(§1) MIC testing was performed according to Clinical and Laboratory Standards Institute (CLSI) M7-A7 (2006) broth microdilution methods. Unless otherwise indicated, MIC values are provided in units of micrograms per milliliter.
(§2) One day prior to testing, individual colonies were isolated by streaking onto rich, non-selective Tryptic Soy agar with 5% lysed sheeps blood (TSAB) with incubation at 35-37° C. for 18-24 hours.
(§3) Cultures were prepared by touching 3-5 colonies into 3 mL of Cation adjusted Mueller Hinton Broth (caMHB) in a 14 mL tube (CaMHB was prepared and sterilized according to manufacturer's specifications). Cultures were grown at 37° C. 200 rpm for approximately four hours prior to density adjustment for addition to the MIC assay.
(§4) OD600 of growing cultures was measured and adjusted to approximately 10^5 colony forming units per mL (CFU/mL) in caMHB for MIC inoculation (approximately OD600 0.001).
(§5) Diluted cultures were used to inoculate 50 μL per well in broth microdilution assays (final volume 100 μl per well; compounds were prepared in two-fold dilutions).
(§6) Plates were incubated 16-20 hrs at 37° C., with shaking at 200 rpm.
(§7) OD600 was determined for all wells. Growth was defined as OD600>0.1. MICs were defined as the lowest concentration producing no visible turbidity (OD600<0.1).
A general note: Dilution methods test growth across graded concentrations, often in twofold steps.

A short description of data set [2]: Solubility profile.
The nature of data set [3]: pH of aqueous solution. Type of data set: physicochemical. Conditions: at 5 mg/mL in water.
The test system of data set [4] is indole-positive Proteae, P. mirabilis, and S. marcescans. The data set is described as follows: In vitro activity against organisms intrinsically resistant to colistin. Type of data set: cell-based. Here is the method: To evaluate the potency and spectrum of compounds of Formula (I), (i.e., Compounds designated 5 and 6), a study was conducted that put together a panel of 455 Gram negative strains, which included multi-drug resistant clinical isolates selected from various surveillance programs. Table 3A lists the strains that were included in the study and the activity of Compound 5, Compound 6, and colistin (polymyxin E, abbreviated PME). Strains with acquired resistance to colistin and/or carbapenems and/or broad spectrum cephalosporins were pre-selected and included in all organism groups evaluated.
as §1

Data set [5] deals with K. pneumonia 21. The data set is described as follows: MIC, broth microdilution. In kind it is cell-based, Klebsiella pneumoniae. Conditions: Table 3B. Here is the method: as §1, §2, §3, §4, §5, §6, §7
The test system of data set [6] is 5 different Gram negative pathogens. The data set is described as follows: Efficacy in 8 animal models with 5 Gram negative pathogens. Type of data set: in vivo. Conditions: 8 models, mouse and rat. Here is the method: Compound 5 was tested for efficacy in 8 models (both mouse models and rat models) with 5 different Gram negative pathogens. […]
Data set [7] is described as follows: Hygroscopicity. Type of data set: physicochemical.
Data set [8] deals with female cynomolgus monkeys. Put plainly: Seven days of repeated IV administration, kidney findings (QD/BID mg/kg doses). Type of data set: in vivo, cynomolgus monkey. Conditions: 6 mg/kg BID. Here is the method:
The kidney findings in female cynomolgus monkeys following seven days of repeated IV administration of Compound 5 were evident at dose levels of 6 mg/kg BID, 6 mg/kg QD, and 9 mg/kg QD, and to a lesser degree of severity at 3 and 4.5 mg/kg BID.

SMILES strings stand for the structures. In brackets after ≈: the same amount, converted by molar mass. Numbered stars: 1 amine (or outer) side, 2 acyl side, 3 side chain; on linkers, the order of the positions; unused ones are H or OH. Bridge positions count the residues as written; N and C are the ends. Square brackets hold non-standard residues; d marks the D form. Peptide text beside a SMILES is read from it. * marks the point of attachment. NH(2-ClPh) = Clc1ccccc1N*; Dab = NCC[C@H](N)C(=O)O; CO = O=C([*:1])[*:2] Some results are limits rather than exact numbers.

On to `CC(C)C[C@@H]1NC(=O)[C@@H](Cc2ccccc2)NC(=O)[C@H](CCN)NC(=O)[C@@H](NC(=O)[C@H](CCN)NC(=O)[C@@H](NC(=O)[C@H](CCN)NC(=O)Nc2ccccc2Cl)[C@@H](C)O)CCNC(=O)[C@H]([C@@H](C)O)NC(=O)[C@H](CCN)NC(=O)[C@H](CCN)NC1=O` [Compound 5, (S)-4-amino-N-((2S,3R)-1-((S)-4-amino-1-oxo-1-((3S,6S,9S,12S,15R,18S,21S)-6,9,18-tris(2-aminoethyl)-15-benzyl-3-((R)-1-hydroxyethyl)-12-isobutyl-2,5,8,11,14,17,20-heptaoxo-1,4,7,10,13,16,19-heptaazacyclotricosan-21-ylamino)butan-2-ylamino)-3-hydroxy-1-oxobutan-2-yl)-2-(3-(2-chlorophenyl)ureido)butanamide] ({NH(2-ClPh)-CO}-[Dab]T[Dab][Dab][Dab][dF]L[Dab][Dab]T; lactam 4-C), for which the “MIC E. coli 1699” value in data set [1] is 2 micrograms/mL. In addition, the solubility in data set [2] (ethanol) is 200 µg/mL (≈ 164 µM); in data set [2] (water) it was over 300000 µg/mL. In data set [3], the pH was 5.9, at 5 mg/mL in water. Moreover, the “activity against organisms intrinsically resistant to colistin” value in data set [4] is given as “limited activity”. Moreover, the “MIC K. pneumonia 21” value in data set [5] is 2 micrograms/mL. The “models in which efficacy was demonstrated” value in data set [6] is recorded as 7 out of 8. Moreover, the Hygroscopicity result in data set [7] is given as “Very hygroscopic”. Also, in data set [8] (6 mg/kg QD, 9 mg/kg QD), the “blood urea nitrogen (BUN) and serum creatinine” value was “increase”. The kidney histopathological changes entry in data set [8] (6 and 9 mg/kg QD, lesser severity at 3 and 4.5 mg/kg BID, 7 days IV) is “minimal to mild degeneration/necrosis and regeneration of tubular epithelium”.

Broadly, the solubility is the concentration that dissolves in the medium under given conditions.

For the origin of these results see patent US8343912B2, “Antibiotic compositions for the treatment of gram negative infections” (priority 2008, dated 2013).
